Reference: paper PMC6158189, “A pharmacological probe identifies cystathionine β-synthase as a new negative regulator for ferroptosis” (Cell Death & Disease, 2018)

Legend:
Assay type in all cases: cell-based
HEK293T cells = test: intracellular ROS (DCFH-DA, flow cytometry); settings: 12 h
Procedure: Fig. 5 In situ reduction of CBS activity and H2S in mitochondria by CH004 is coupled with an increase of intracellular ROS. a, b CH004 dose-dependently elevates ROS levels in both HepG2 (a) and HEK293T cells (b). The cells were treated with CH004 for 12 h or with 1 mM H2O2 for 30 min before the staining with DCFH-DA (Molecular Probes) and the analyzsis by flow cytometry (“Materials and Methods” section). Means ± SDS (n = 3). […] HepG2 cells were incubated with indicated inhibitors for 8 h before staining with the mitochondria tracker Mito-tracker® Green (Invitrogen) and the AzMC probe. Cyan represents the colocalization of H2S (blue) and the mitochondria tracker (green). Bars: 50 μm. d hCBS co-localizes with the mitochondria in HepG2 and HEK293T cells. HepG2 and HEK293T cells were stained with an anti-CBS antibody (3E1, 1:200; Abnova) for hCBS (red), Mito-tracker® Green for the mitochondria (green) and DAPI for the nucleus (blue). […]
To investigate the intracellular ROS levels, HEK293T or HepG2 cells were seeded in 6-well plates for one day, then incubated with the indicated inhibitors and 1 mM H2O2 for 12 h and 30 min, respectively. After trypsinization and one wash in PBS, the collected cells were resuspended in PBS and incubated with 100 μM probe DCFH-DA for 30 min at 37 °C before being analyzed using an LSR Fortessa flow cytometer.

293T-shNT cells = test: cell viability of stable HEK293T lines; settings: Homo sapiens, HEK-293T, 24 h
Procedure: (§1) Fig. 4 CH004 arrests the cell cycle at the S phase. a CH004 reduces the cell viability of HEK293T and HepG2 cells. HEK293T or HepG2 cells were treated with indicated concentrations of CH004 for 24 h before the cell number was analyzed using the CellTiter96® Aqueous One Solution Cell Proliferation Assay (Promega, Materials and Methods). The means at each concentration of one representative experiment are shown as percentages of DMSO (control, 100%). Means ± SDs (n = 3). b Overexpression of hCBS or knock-down of hCBS counteracts the growth inhibition exerted by CH004 in HEK293T cells. Indicated HEK293T stable cell lines were treated with the CH004 or DMSO for 24 h. Then, the cell viability was quantified with the CellTiter 96® Aqueous One Solution Cell Proliferation Assay under the standard protocol (Promega). The means at each concentration are shown as percentages of their respective DMSO controls (100%). Means ± SDs (n = 3). The efficacy for CBS overexpression and knock-down in HEK293T cells was determined by Western blotting using an anti-CBS antibody (3E1, 1:2000; Abnova). c CH004 induces cell death in HEK293T and HepG2 cells. […] The means of percentages of dead cells (DMSO, 100%) from three independent samples are shown in d. Means ± SDs (n = 3). e, f Pharmacological inhibition or genetic knock-down of hCBS in HEK293T cells arrests the cell cycle at S phase. HEK293T cells were incubated with indicated compounds for 12 h, and the DNA content was quantified with propidium iodide to analyze the cell cycle distribution by flow cytometry (e). The cell cycle distributions for HEK293T-shNT and HEK293T-shCBS cells were accordingly analyzed and are shown in f. One representative diagram is shown for each condition. The mean percentages of various cell phases from three independent samples are shown in the respective right panels. Means ± SDs (n = 3). Statistical analyses were performed by two-way ANOVA with Bonferroni post-tests. *p < 0.05; **p < 0.01; ***p < 0.001.
(§2) HEK293T cells stably expressing hCBS-FL WT or Q222A mutant were generated using lentiviral particles carrying pCDH-hCBS or pCDH empty vector (EV) and pPACK Packaging Plasmid Mix (SBI, Mountain View, CA, USA) according to the manufacturer’s instructions. Similarly, CBS-knock-down HEK293T cells or control cells were obtained using the miRzip lentiviral vector according to the manufacturer’s protocol (SBI, MZIPxxxPA-1). The infected cells were then incubated with 2.5 μg/mL puromycin for two weeks until stable clones were obtained. The target sequence of shRNA-CBS was 5′-GTAGTTCCGCACTGAGTCG-3′, which has been used previously. The scramble control was 5′-TCCGCAGGTATGCACGCGT-3′.
(§3) Figure S12. CH004 inhibits the proliferation of cells via specifically targeting hCBS. (A-B) Dose-dependent curves of CH004 on the cell viability of CBS-stably-expressed HEK293T (A) or CBS-knockdown cells (B). Percentages of cell viability of CH004 obtained in Figure 4b were fitted to the non-linear equation using GraphPad Prism 5 to get the IC50 values of CH004 in respective cell lines (●, 293T-CBS WT cells; ○, 293T-EV; ▲, 293T-shCBS; △, 293T-shNT). Means ± SDs (n=3). […] HEK293T cells stably expressing of the lentiviral shRNA targeting CBS (shCBS) or control shRNA (shNT) were seeded at the density of ~ 3,000 cells per well in 96-well plates and the cell images in the bright field were acquired at indicated times by Image Xpress Micro® XLS (Molecular Devices, Sunnyvale, CA) under 10 × objective lens. Representative images of two independent experiments (n = 6 for each experiment) are shown in C. The cell numbers of images under 4 × objective lens of one representative experiment were calculated by Image Xpress Software and the data is shown in D. Means ± SDs (n=6). […] HepG2 cells were seeded in a 96-well plate at a density of 20000 cells per well and cultured for 24 h before treatment with indicated concentrations of CH004 for another 24 h. […]

293T-CBS WT cells = test: cell viability of stable HEK293T lines
Procedure: as §1, §2, §3

293T-EV cells = test: cell viability of stable HEK293T lines; settings: Homo sapiens, HEK-293T, 24 h
Procedure: as §1, §2, §3

293T-shCBS cells = test: cell viability of stable HEK293T lines
Procedure: as §1, §2, §3

Cn1nc(Cc2ccccc2)nc2c(=O)n(C)c(=O)nc1-2 [CH004, 3-benzyl-1,6-dimethylpyrimido[5,4-e][1,2,4]triazine-5,7(1H,6H)-dione]
maximum increase of cellular ROS (HEK293T cells): ~ 2 fold
IC50 (293T-shNT cells): 2.6 ± 0.5 µM
counteraction of inhibitory effect by overexpression of CBS (293T-CBS WT cells; 293T-CBS WT vs 293T-EV): 3 fold
IC50 (293T-CBS WT cells; Homo sapiens, HEK-293T, 24 h): 35.5 ± 1.2 µM
IC50 (293T-EV cells): 9.6 ± 1.6 µM
increase of IC50 by CBS knock-down (293T-shCBS cells; 293T-shCBS vs 293T-shNT): 15 fold
IC50 (293T-shCBS cells; Homo sapiens, HEK-293T, 24 h): 43.2 ± 8.3 µM
